Reference: US20250161266A1, “Antibacterial 4.5 Diaryl-Thiophen-2-YL Hexafluoropropan-2-OLS” (priority 2022, published 2025)
Values joined by “and” are separate entries in the source; they are usually repeats but may differ in a detail not shown here. Equal entries are not always repeated.

Tested on: Bacillus anthracis
Assay type: cell-based

| Compound | MIC | MIC50 | MIC90 |
| --- | --- | --- | --- |
| Cc1cc(Cl)ccc1-c1cc(C(O)(C(F)(F)F)C(F)(F)F)sc1-c1ccc(Cl)cc1CO [DNM94A, 2-(5-(4-chloro-2-(hydroxymethyl)phenyl)-4-(4-chloro-2-methylphenyl)thiophen-2-yl)-1,1,1,3,3,3-hexafluoropropan-2-ol] | 1 µg·mL | 1 µg·mL | 1 µg·mL |
| Cc1cc(Cl)ccc1-c1sc(C(O)(C(F)(F)F)C(F)(F)F)cc1-c1ccc(Cl)cc1CO [DNM95A, 2-(4-(4-chloro-2-(hydroxymethyl)phenyl)-5-(4-chloro-2-methylphenyl)thiophen-2-yl)-1,1,1,3,3,3-hexafluoropropan-2-ol] | 1 µg·mL and 0.5 µg·mL | 1 µg·mL | 1 µg·mL |
| colistin [reference compound] | – | GT64 μg ml | GT64 μg ml |
